Test results taken from patent publication US20210163443A1, “Febrifugine Derivatives” (BRISTOL-MYERS SQUIBB COMPANY, priority 2019, published 2021).
Where a name gives a salt, the structure may show the parent alone.

Biological target: T1, human ProRS (prolyl tRNA synthetase moiety of glutamyl prolyl tRNA synthetase, EPRS) (Homo sapiens, UniProt P07814)
T1 construct: The prolyl tRNA synthetase moiety (ProRS) in the cDNA of glutamyl prolyl tRNA synthetase was subcloned; 6xHis (N, cleaved yes); made in house; host or cells: E. coli BL21 (DE3)
T1 sequence (P07814 1007-1512 limits assumed): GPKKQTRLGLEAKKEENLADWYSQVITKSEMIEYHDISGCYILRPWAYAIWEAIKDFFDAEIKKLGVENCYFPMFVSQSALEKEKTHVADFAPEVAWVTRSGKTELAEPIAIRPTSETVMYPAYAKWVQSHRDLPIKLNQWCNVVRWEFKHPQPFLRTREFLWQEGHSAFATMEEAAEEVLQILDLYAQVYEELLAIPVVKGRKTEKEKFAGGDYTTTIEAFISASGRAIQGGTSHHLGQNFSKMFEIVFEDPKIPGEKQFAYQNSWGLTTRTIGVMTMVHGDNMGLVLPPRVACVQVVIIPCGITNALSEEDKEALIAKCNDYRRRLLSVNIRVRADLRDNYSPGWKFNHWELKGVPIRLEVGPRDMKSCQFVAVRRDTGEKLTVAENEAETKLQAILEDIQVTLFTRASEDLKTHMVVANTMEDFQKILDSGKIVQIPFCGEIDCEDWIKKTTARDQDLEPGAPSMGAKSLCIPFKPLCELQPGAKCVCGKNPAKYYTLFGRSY
Test: Assay for inhibitors of prolyl tRNA synthetase activity (ProRS assay, labeled proline incorporation)
Type: biochemical
Conditions: human ProRS 20 nM, 10 min at 37° C.; read-out: EPRS IC50
From the text: In order to establish the activities of the compounds highlighted above, we determined extent of inhibition of prolyl tRNA synthetase activity in dose response curves to obtain IC50 values.
The prolyl tRNA synthetase moiety (ProRS) in the cDNA of glutamyl prolyl tRNA synthetase was subcloned, tagged with a single biotin, purified and used in the assay.
Briefly, human ProRS with a 6×N-terminal His tag in pET28N with TVMV BioP was transformed in E. coli BL21 (DE3) cells, selected, overexpressed and purified using a Ni Seph 6 FF XK 16/20 column in the first stage. Ni-NTA eluates were pooled and treated with TVMV protease, and biotinylated using d-Biotin, MgCl2, ATP and the BirA enzyme. This was rerun through a Ni column as before. The eluates were further enriched and purified using membrane ultrafiltration and a SuperDex 200 XK 16/60 column, and peak fractions were confirmed by SDS-PAGE prior to protein amount determination, aliquoting and storage at −80° C. • ProRS assay was performed in 96 well plates in a final reaction volume of 20 μl, using staggered additions of Tris-Cl (pH 7.5, 60 mM), dithiothreitol (2 mM), ATP (5 mM, pH 7.0), MgCl2 6 mM), ProRS (20 nM, with pre-determined active fraction range) and bovine tRNA (20 μg). Controls and compounds, at various concentrations (10 μM to 0.5 nM), were incubated on ice with enzyme mix for 15 min followed by addition of proline (non-labeled and labeled, 3.96 and 1.04 μM (1 μCi) respectively) to initiate the reaction. Reaction was carried out for 10 min at 37° C. and terminated by addition of TCA (10%, 100 μl). Reaction mix was collected on a Whatman GF/B filter using a vacuum filtration manifold. This filter was washed 3 times with 5% TCA followed by 2 washes with ethanol, air dried, and read using a liquid scintillation counter (TopCount NXT) using MicroScint O. IC50 values were calculated and analyzed using ToolSet (4-parameter plot) and depicted herein.

Row | IC50 | Compound
1 | 23 nM | O=c1c2cc(-c3cccc(Cl)c3)ccc2ncn1C[C@@H](O)C[C@H]1NCCC[C@@H]1O [Example 51, 6-(3-Chlorophenyl)-3-{(S)-2-hydroxy-3-[(2R,3S)-3-hydroxypiperidin-2-yl]propyl}quinazolin-4(3H)-one hydrochloride]
2 | 4 nM | Cc1cc(-c2ccc(F)c(F)c2)cc2c(=O)n(C[C@@H](O)C[C@H]3NCCC[C@@H]3O)cnc12 [Example 56, 6-(3,4-Difluorophenyl)-3-{(S)-2-hydroxy-3-[(2R,3S)-3-hydroxypiperidin-2-yl]propyl}-8-methylquinazolin-4(3H)-one hydrochloride]
3 | 6 nM | Cc1cc(C2CC2)cc2c(=O)n(CC(=O)C[C@H]3NCCC[C@@H]3O)cnc12 [Example 11, 6-Cyclopropyl-3-{3-[(2R,3S)-3-hydroxypiperidin-2-yl]-2-oxopropyl}-8-methylquinazolin-4(3H)-one hydrochloride]
4 | 6 nM | O=C(C[C@H]1NCCC[C@@H]1O)Cn1cnc2cccc(-c3cccnc3)c2c1=O [Example 28, 3-{3-[(2R,3S)-3-Hydroxypiperidin-2-yl]-2-oxopropyl}-5-(pyridin-3-yl)quinazolin-4(3H)-one dihydrochloride]
5 | 15 nM | Cc1cc(-c2ccc(F)c(F)c2)cc2c(=O)n(CC(=O)C[C@H]3NCCC[C@@H]3O)cnc12 [Example 22, 6-(3,4-Difluorophenyl)-3-{3-[(2R,3S)-3-hydroxypiperidin-2-yl]-2-oxopropyl}-8-methylquinazolin-4(3H)-one hydrochloride]
6 | 28 nM | O=C(C[C@H]1NCCC[C@@H]1O)Cn1cnc2ccc(-c3cccc(Cl)c3)cc2c1=O [Example 17, 6-(3-Chlorophenyl)-3-{3-[(2R,3S)-3-hydroxypiperidin-2-yl]-2-oxopropyl}quinazolin-4(3H)-one hydrochloride]
7 | 38 nM | CCc1cc(F)cc2c(=O)n(CC(=O)C[C@H]3NCCC[C@@H]3O)cnc12 [Example 14, 8-Ethyl-6-fluoro-3-(3-((2R,3S)-3-hydroxypiperidin-2-yl)-2-oxopropyl)quinazolin-4(3H)-one hydrochloride]
8 | 7 nM | Cc1cc(C(F)(F)F)cc2c(=O)n(CC(=O)C[C@H]3NCCC[C@@H]3O)cnc12 [Example 9, 3-{3-[(2R,3S)-3-Hydroxypiperidin-2-yl]-2-oxopropyl}-8-methyl-6-(trifluoromethyl)quinazolin-4(3H)-one hydrochloride]
9 | 8 nM | Cc1cc(-c2cccnc2)cc2c(=O)n(CC(=O)C[C@H]3NCCC[C@@H]3O)cnc12 [Example 21, 3-{3-[(2R,3S)-3-Hydroxypiperidin-2-yl]-2-oxopropyl}-8-methyl-6-(pyridin-3-yl)quinazolin-4(3H)-one dihydrochloride]
10 | 38 nM | O=c1c2c(-c3cccc(C(F)(F)F)c3)cccc2ncn1C[C@@H](O)C[C@H]1NCCC[C@@H]1O [Example 60, 3-{(S)-2-Hydroxy-3-[(2R,3S)-3-hydroxypiperidin-2-yl]propyl}-5-[3-(trifluoromethyl)phenyl]quinazolin-4(3H)-one hydrochloride]
11 | 9 nM | O=c1c2c(C3CC3)cccc2ncn1C[C@@H](O)C[C@H]1NCCC[C@@H]1O [Example 68, 5-Cyclopropyl-3-{(S)-2-hydroxy-3-[(2R,3S)-3-hydroxypiperidin-2-yl]propyl}quinazolin-4(3H)-one hydrochloride]
12 | 14 nM | Cc1cc(N2CCCC2)cc2c(=O)n(CC(=O)C[C@H]3NCCC[C@@H]3O)cnc12 [Example 24, 3-{3-[(2R,3S)-3-Hydroxypiperidin-2-yl]-2-oxopropyl}-8-methyl-6-(pyrrolidin-1-yl)quinazolin-4(3H)-one dihydrochloride]
13 | 15 nM | Cc1c(Cl)ccc2c(=O)n(CC(=O)C[C@H]3NCCC[C@@H]3O)cnc12 [Example 2, 7-Chloro-3-{3-[(2R,3S)-3-hydroxypiperidin-2-yl]-2-oxopropyl}-8-methylquinazolin-4(3H)-one hydrochloride]
14 | > 10000 nM | Cc1cc(Cl)cc2c(=O)n(C[C@@H](O)C[C@H]3NCCC[C@@H]3OC(=O)C(C)(C)C)cnc12 [Example 63, (2R,3S)-2-{(S)-3-[6-chloro-8-methyl-4-oxoquinazolin-3(4H)-yl]-2-hydroxypropyl}piperidin-3-ylpivalate hydrochloride]
15 | 21 nM | Cc1cc(C(C)C)cc2c(=O)n(C[C@@H](O)C[C@H]3NCCC[C@@H]3O)cnc12 [Example 45, 3-{(S)-2-Hydroxy-3-[(2R,3S)-3-hydroxypiperidin-2-yl]propyl}-6-isopropyl-8-methylquinazolin-4(3H)-one hydrochloride]
16 | 14 nM | O=c1c2cc(-c3cccc(F)c3)ccc2ncn1C[C@@H](O)C[C@H]1NCCC[C@@H]1O [Example 50, 6-(3-Fluorophenyl)-3-{(S)-2-hydroxy-3-[(2R,3S)-3-hydroxypiperidin-2-yl]propyl}quinazolin-4(3H)-one hydrochloride]
17 | 9 nM | Cc1cc(-c2cccc(F)c2)cc2c(=O)n(CC(=O)C[C@H]3NCCC[C@@H]3O)cnc12 [Example 19, 6-(3-Fluorophenyl)-3-{3-[(2R,3S)-3-hydroxypiperidin-2-yl]-2-oxopropyl}-8-methylquinazolin-4(3H)-one hydrochloride]
18 | 62 nM | Cc1cc(Br)cc2c(=O)n(C[C@@H](O)C[C@H]3NCCC[C@@H]3O)cnc12 [Example 37, 6-Bromo-3-{(S)-2-hydroxy-3-[(2R,3S)-3-hydroxypiperidin-2-yl]propyl}-8-methylquinazolin-4(3H)-one hydrochloride]
19 | 20 nM | Cc1cc(OC(F)(F)F)cc2c(=O)n(C[C@@H](O)C[C@H]3NCCC[C@@H]3O)cnc12 [Example 42, 3-{(S)-2-Hydroxy-3-[(2R,3S)-3-hydroxypiperidin-2-yl]propyl}-8-methyl-6-(trifluoromethoxy)quinazolin-4(3H)-one hydrochloride]
20 | 13 nM | O=C(C[C@H]1NCCC[C@@H]1O)Cn1cnc2cccc(-c3cccc(C(F)(F)F)c3)c2c1=O [Example 26, 3-{3-[(2R,3S)-3-Hydroxypiperidin-2-yl]-2-oxopropyl}-5-[3-(trifluoromethyl)phenyl]quinazolin-4(3H)-one hydrochloride]
21 | 73 nM | Cc1cc(Cl)cc2c(=O)n(CC(=O)C[C@H]3NCCC[C@@H]3O)cnc12 [Example 1, 6-Chloro-3-{3-[(2R,3S)-3-hydroxypiperidin-2-yl]-2-oxopropyl}-8-methylquinazolin-4(3H)-one hydrochloride]
22 | 429 nM | Cc1c(Cl)ccc2c(=O)n(C[C@@H](O)C[C@H]3NCCC[C@@H]3O)cnc12 [Example 36, 7-Chloro-3-{(S)-2-hydroxy-3-[(2R,3S)-3-hydroxypiperidin-2-yl]propyl}-8-methylquinazolin-4(3H)-one hydrochloride]
23 | 20 nM | Cc1cc(C(F)(F)F)cc2c(=O)n(C[C@@H](O)C[C@H]3NCCC[C@@H]3O)cnc12 [Example 44, 3-{(S)-2-Hydroxy-3-[(2R,3S)-3-hydroxypiperidin-2-yl]propyl}-8-methyl-6-trifluoromethyl)quinazolin-4(3H)-one hydrochloride]
24 | 3 nM | CCc1cc(C)c2ncn(CC(=O)C[C@H]3NCCC[C@@H]3O)c(=O)c2c1 [Example 6, 6-Ethyl-3-(3-((2R,3S)-3-hydroxypiperidin-2-yl)-2-oxopropyl)-8-methylquinazolin-4(3H)-one hydrochloride]
25 | 28 nM | Cc1cc(-c2cccc(C(F)(F)F)c2)cc2c(=O)n(CC(=O)C[C@H]3NCCC[C@@H]3O)cnc12 [Example 20, 3-{3-[(2R,3S)-3-Hydroxypiperidin-2-yl]-2-oxopropyl}-8-methyl-6-[3-(trifluoromethyl)phenyl]quinazolin-4(3H)-one hydrochloride]

Row | Compound | IC50
26 | 3-{(S)-2-hydroxy-3-[(2R,3S)-3-hydroxypiperidin-2-yl]propyl}-8-methyl-6-(1-methyl-1H-pyrazol-3-yl)quinazolin-4(3H)-one hydrochloride [Example 71] | 4200 nM
